# Results published in ChEMBL document CHEMBL1137157, “Synthesis and biological activity of 2-anilino-4-(1H-pyrrol-3-yl) pyrimidine CDK inhibitors” (Bioorg Med Chem Lett, 2004).
# pIC50, pKi: −log10 of the molar value.
# How the values were obtained:
# Cell line = assay: inhibitory concentration for anti-proliferative activity against A549 and […] human tumor cell lines was determined; format: functional, cell-based
# [1] = target: Cyclin-dependent kinase 2 (Homo sapiens, UniProt P24941); assay: Inhibition of Cyclin dependent kinase 2
# [2] = target: Cyclin-dependent kinase 4 (Homo sapiens, UniProt P11802); assay: Inhibition of Cyclin dependent kinase 4
# Cyclin-dependent kinase 4, sequence (P11802 whole entry): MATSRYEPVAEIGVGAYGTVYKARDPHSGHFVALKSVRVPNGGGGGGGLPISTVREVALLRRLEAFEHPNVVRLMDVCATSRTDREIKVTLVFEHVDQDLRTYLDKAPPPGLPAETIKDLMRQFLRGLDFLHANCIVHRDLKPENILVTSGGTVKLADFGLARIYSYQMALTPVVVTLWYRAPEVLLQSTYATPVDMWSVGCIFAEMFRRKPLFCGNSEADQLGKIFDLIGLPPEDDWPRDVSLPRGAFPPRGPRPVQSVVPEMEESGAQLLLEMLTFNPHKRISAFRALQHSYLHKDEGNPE
pKi [1],pKi [2],Structure (SMILES),pIC50 (Cell line)
6.57,,Cc1[nH]c(Br)c(C)c1-c1ccnc(Nc2ccc(F)cc2)n1,4.80
7.00,,Cc1[nH]c(C#N)c(C)c1-c1ccnc(Nc2ccc(F)cc2)n1,5.61
,6.38,Cc1[nH]c(C(N)=O)c(C)c1-c1ccnc(Nc2ccc(F)cc2)n1,5.79
,6.92,Cc1[nH]c([N+](=O)[O-])c(C)c1-c1ccnc(Nc2ccc(F)cc2)n1,5.51
6.44,,Cc1[nH]c(Cl)c(C)c1-c1ccnc(Nc2ccc(F)cc2)n1,4.89

# Second part, the molecule before the results:
Structure (SMILES),pKi [1],pKi [2],pIC50 (Cell line)
Cc1ccc(Nc2nccc(-c3c(C)[nH]c(C#N)c3C)n2)cc1[N+](=O)[O-],,,6.42
Cc1[nH]c(C#N)c(C)c1-c1ccnc(Nc2ccc(O)cc2)n1,,,5.87
Cc1cc(Nc2nccc(-c3c(C)[nH]c(C#N)c3C)n2)ccc1F,,6.52,6.05
Cc1[nH]c(C#N)c(C)c1-c1ccnc(Nc2cccc([N+](=O)[O-])c2)n1,,,6.44
Cc1ccc(Nc2nccc(-c3c(C)[nH]c(C#N)c3C)n2)cc1O,,,5.93
Cc1[nH]c(C#N)c(C)c1-c1ccnc(Nc2cccc(O)c2)n1,7.52,,5.74
Cc1c[nH]c(C)c1-c1ccnc(Nc2cccc([N+](=O)[O-])c2)n1,,5.38,
